Experimental data published in patent publication US11999716B2, “WDR5 inhibitors and modulators” (priority 2018, dated 2024).

These molecules were tested on MV4:11 human cancer cell lines (assay: Cellular viability / anti-proliferative activity, CellTiter-Glo, 5 day protocol). Conditions: Homo sapiens, MV4-11, 120 h, MV4:11 cells; 5 day incubation; CellTiter-Glo; mean of minimum two replicates; read-out: GI50 on cellular proliferation of MV4:11 human cancer cell lines.
Type: cell-based
Protocol: Cellular Viability of Human Tumor Cell Lines
Anti proliferative activity using MLL-harboring cell lines. […] Viability assays are performed by dispensing 200 cells at 7200 cells/mL into each well of an opaque 384-well plate and adding compounds at the indicated concentrations in a final volume of 32 μL and a final concentration of DMSO of 0.3% for all samples. A certain range of compound concentrations is made through a series of 2-fold dilutions starting 30 μM at the highest, total 22 dilutions. After a set incubation period, 5 day protocol, the viability of cells in each well is assessed using the CellTiter-Glo assay (Promega), read on a 96 Microplane Luminometer (Cytation 3, BioTek). Serial dilutions of each cell type are performed in all assays to generate standard curves and the final densities of cells are determined within the dynamic range of the instrument. GI50 values are calculated based on XLfit software (IDBS, Guildford, UK) with Sigmoidal Dose-Response Model. Each compound is tested in minimum of two replicates. Data are expressed as mean.

SMILES	GI50 [nM]
COc1ccnc(CN2CCc3c(cc(CN4CCCC4=N)cc3-c3cn(C)nc3C)C2=O)c1 [Example 110, 5-(1,3-Dimethyl-1H-pyrazol-4-yl)-7-((2-iminopyrrolidin-1-yl)methyl)-2-((4-methoxypyridin-2-yl)methyl)-3,4-dihydroisoquinolin-1(2H)-one]	> 938
Cc1nccn1Cc1cc2c(c(-c3cn(C)nc3C(F)(F)F)c1)CCN(CC1CCC(=O)N(C)C1)C2=O (stereo not shown) [Example 172, 7-((2-Methyl-1H-imidazol-1-yl)methyl)-5-(1-methyl-3-(trifluoromethyl)-1H-pyrazol-4-yl)-2-((1-methyl-6-oxopiperidin-3-yl)methyl)-3,4-dihydroisoquinolin-1(2H)-one]	221
COc1cc(CN2CCc3c(cc(CN4CCSC4=N)cc3-c3ccc(F)cc3C)C2=O)cc(OC)c1 [Example 100, 2-(3,5-Dimethoxybenzyl)-5-(4-fluoro-2-methylphenyl)-7-((2-iminothiazolidin-3-yl)methyl)-3,4-dihydroisoquinolin-1(2H)-one]	269
CCn1cc(-c2cc(Cn3ccnc3C)cc3c2CCN([C@H](c2cc(C)ccn2)C2CC2)C3=O)c(C(F)(F)F)n1 [Example 177, (S)-2-(Cyclopropyl(4-methylpyridin-2-yl)methyl)-5-(1-ethyl-3-(trifluoromethyl)-1H-pyrazol-4-yl)-7-((2-methyl-1H-imidazol-1-yl)methyl)-3,4-dihydroisoquinolin-1(2H)-one]	< 50
COc1cc(CN2CCc3c(cc(Cn4ccn(C)c4=N)cc3-c3cn(C)nc3C(F)(F)F)C2=O)cc(OC)c1 [Example 39, 2-(3,5-Dimethoxybenzyl)-7-((2-imino-3-methyl-2,3-dihydro-1H-imidazol-1-yl)methyl)-5-(1-methyl-3-(trifluoromethyl)-1H-pyrazol-4-yl)-3,4-dihydroisoquinolin-1(2H)-one]	< 50
Cc1cc(CN2CCc3c(cc(Cn4ccn(C)c4=N)cc3-c3cccnc3C)C2=O)ccc1Cl [Example 27, 2-(4-Chloro-3-methylbenzyl)-7-((2-imino-3-methyl-2,3-dihydro-1H-imidazol-1-yl)methyl)-5-(2-methylpyridin-3-yl)-3,4-dihydroisoquinolin-1(2H)-one]	> 938
COc1ccnc(CN2CCc3c(cc(Cn4cnsc4=N)cc3-c3cn(C)nc3C(F)(F)F)C2=O)c1 [Example 130, 7-((5-Imino-1,2,4-thiadiazol-4(5H)-yl)methyl)-2-((4-methoxypyridin-2-yl)methyl)-5-(1-methyl-3-(trifluoromethyl)-1H-pyrazol-4-yl)-3,4-dihydroisoquinolin-1(2H)-one]	845
COc1ccnc([C@H](C)N2CCc3c(cc(Cn4ccnc4C)cc3-c3c[nH]nc3C)C2=O)c1 [Example 238, (S)-2-(1-(4-methoxypyridin-2-yl)ethyl)-7-((2-methyl-1H-imidazol-1-yl)methyl)-5-(3-methyl-1H-pyrazol-4-yl)-3,4-dihydroisoquinolin-1(2H)-one]	227
Cc1nccn1Cc1cc2c(c(-c3cn(C)nc3C(F)(F)F)c1)CCN(Cc1cccc(C(F)(F)F)c1)C2=O [Example 221, 7-((2-Methyl-1H-imidazol-1-yl)methyl)-5-(1-methyl-3-(trifluoromethyl)-1H-pyrazol-4-yl)-2-(3-(trifluoromethyl)benzyl)-3,4-dihydroisoquinolin-1(2H)-one]	421
Cc1cc([C@H](C2CC2)N2CCc3c(cc(Cn4ccn(C)c4=N)cc3-c3cccnc3C(F)(F)F)C2=O)ccc1F [Example 34, (S)-2-(Cyclopropyl(4-fluoro-3-methylphenyl)methyl)-7-((2-imino-3-methyl-2,3-dihydro-1H-imidazol-1-yl)methyl)-5-(2-(trifluoromethyl)pyridin-3-yl)-3,4-dihydroisoquinolin-1(2H)-one]	215
COc1ccnc([C@H](C)N2CCc3c(cc(Cn4ccnc4C)cc3-c3cccnc3C)C2=O)c1 [Example 202, (S)-2-(1-(4-Methoxypyridin-2-yl)ethyl)-7-((2-methyl-1H-imidazol-1-yl)methyl)-5-(2-methylpyridin-3-yl)-3,4-dihydroisoquinolin-1(2H)-one]	230
CCn1cc(-c2cc(Cn3ccnc3C)cc3c2CCN([C@@H](C)c2cc(OC)ccn2)C3=O)c(C(F)(F)F)n1 [Example 156, (S)-5-(1-Ethyl-3-(trifluoromethyl)-1H-pyrazol-4-yl)-2-(1-(4-methoxypyridin-2-yl)ethyl)-7-((2-methyl-1H-imidazol-1-yl)methyl)-3,4-dihydroisoquinolin-1(2H)-one]	< 50
COc1cc(CN2CCc3c(OCC(F)(F)F)cc(Cn4ccn(C)c4=N)cc3C2=O)cc(OC)c1 [Example 73, 2-(3,5-Dimethoxybenzyl)-7-((2-imino-3-methyl-2,3-dihydro-1H-imidazol-1-yl)methyl)-5-(2,2,2-trifluoroethoxy)-3,4-dihydroisoquinolin-1(2H)-one]	> 938
Cc1nnc(CN2CCc3c(cc(Cn4ccnc4C)cc3-c3cn(C)nc3C(F)(F)F)C2=O)s1 [Example 174, 2-((5-Methyl-1,3,4-thiadiazol-2-yl)methyl)-7-((2-methyl-1H-imidazol-1-yl)methyl)-5-(1-methyl-3-(trifluoromethyl)-1H-pyrazol-4-yl)-3,4-dihydroisoquinolin-1(2H)-one]	329
COc1cc(CN2CCc3c(cc(Cn4ccn(C)c4=N)cc3-c3c(C)noc3C)C2=O)cc(OC)c1 [Example 76, 2-(3,5-Dimethoxybenzyl)-5-(3,5-dimethylisoxazol-4-yl)-7-((2-imino-3-methyl-2,3-dihydro-1H-imidazol-1-yl)methyl)-3,4-dihydroisoquinolin-1(2H)-one]	> 938
COc1cc(CN2CCc3cc(F)c(CNC4=NCCN4)cc3C2=O)cc(OC)c1 [Example 133, 7-(((4,5-Dihydro-1H-imidazol-2-yl)amino)methyl)-2-(3,5-dimethoxybenzyl)-6-fluoro-3,4-dihydroisoquinolin-1(2H)-one]	173
CCn1cc(-c2cc(CN3Cc4ccccc4C3=N)cc3c2CCN(Cc2cc(OC)ccn2)C3=O)c(C(F)(F)F)n1 [Example 115, 5-(1-Ethyl-3-(trifluoromethyl)-1H-pyrazol-4-yl)-7-((1-iminoisoindolin-2-yl)methyl)-2-((4-methoxypyridin-2-yl)methyl)-3,4-dihydroisoquinolin-1(2H)-one]	> 938
COc1ccnc([C@H](C)N2CCc3c(cc(Cn4ccnc4C)cc3-c3cnccc3C)C2=O)c1 [Example 196, (S)-2-(1-(4-Methoxypyridin-2-yl)ethyl)-7-((2-methyl-1H-imidazol-1-yl)methyl)-5-(4-methylpyridin-3-yl)-3,4-dihydroisoquinolin-1(2H)-one]	936
CCn1cc(-c2cc(Cn3cnn(C)c3=N)cc3c2CCN(Cc2cc(OC)ccn2)C3=O)c(C(F)(F)F)n1 [Example 123, 5-(1-Ethyl-3-(trifluoromethyl)-1H-pyrazol-4-yl)-7-((5-imino-1-methyl-1,5-dihydro-4H-1,2,4-triazol-4-yl)methyl)-2-((4-methoxypyridin-2-yl)methyl)-3,4-dihydroisoquinolin-1(2H)-one]	< 50
CCn1cc(-c2cc(Cn3ccoc3=N)cc3c2CCN(Cc2cc(OC)ccn2)C3=O)c(C)n1 [Example 90, 5-(1-Ethyl-3-methyl-1H-pyrazol-4-yl)-7-((2-iminooxazol-3(2H)-yl)methyl)-2-((4-methoxypyridin-2-yl)methyl)-3,4-dihydroisoquinolin-1(2H)-one]	209
Cc1cncc([C@H](C)N2CCc3c(cc(Cn4ccnc4C)cc3-c3cn(C)nc3C(F)(F)F)C2=O)c1 [Example 200, (S)-7-((2-Methyl-1H-imidazol-1-yl)methyl)-5-(1-methyl-3-(trifluoromethyl)-1H-pyrazol-4-yl)-2-(1-(5-methylpyridin-3-yl)ethyl)-3,4-dihydroisoquinolin-1(2H)-one]	< 50
CCn1cc(-c2cc(Cn3cc4n(c3=N)CCC4)cc3c2CCN(Cc2cc(OC)ccn2)C3=O)c(C(F)(F)F)n1 [Example 56, 5-(1-Ethyl-3-(trifluoromethyl)-1H-pyrazol-4-yl)-7-((3-imino-6,7-dihydro-3H-pyrrolo[1,2-c]imidazol-2(5H)-yl)methyl)-2-((4-methoxypyridin-2-yl)methyl)-3,4-dihydroisoquinolin-1(2H)-one]	870
COc1ccnc(CN2Cc3c(cc(Cn4ccn(C)c4=N)cc3-c3ccc(F)cc3C)C2=O)c1 [Example 138, 4-(4-Fluoro-2-methylphenyl)-6-((2-imino-3-methyl-2,3-dihydro-1H-imidazol-1-yl)methyl)-2-((4-methoxypyridin-2-yl)methyl)isoindolin-1-one]	2280
CCn1cc(-c2cc(Cn3ccnc3)cc3c2CCN([C@H](c2cc(C)ccn2)C2CC2)C3=O)c(C(F)(F)F)n1 [Example 245, (S)-7-((1H-imidazol-1-yl)methyl)-2-(cyclopropyl(4-methylpyridin-2-yl)methyl)-5-(1-ethyl-3-(trifluoromethyl)-1H-pyrazol-4-yl)-3,4-dihydroisoquinolin-1(2H)-one]	< 50

Same assay, conditions: Homo sapiens, MV4-11, 120 h, read-out: GI50 on cellular proliferation of MV4:11 human cancer cell lines

SMILES	GI50 [nM]
Cc1ccnc(C(C2CC2)N2CCc3c(cc(Cn4ccn(C)c4=N)cc3-c3ccc(F)cc3C)C2=O)c1 (stereo not shown) [Example 30, 2-(Cyclopropyl(4-methylpyridin-2-yl)methyl)-5-(4-fluoro-2-methylphenyl)-7-((2-imino-3-methyl-2,3-dihydro-1H-imidazol-1-yl)methyl)-3,4-dihydroisoquinolin-1(2H)-one]	95
